Data reported in patent US20260028384A1, “USE OF IL-2 VARIANT FOR TREATING KIDNEY TRANSPLANT REJECTION” (Visterra, Inc., priority 2024, published 2026).
“Also recorded” adds a separate entry of the source.

Key:
kidney allograft [1] = test system: kidney allograft
Text: The effect of an exemplary alpha-biased IL-2-Fc fusion protein (SEQ ID NO: 27) on prolonged kidney allograft survival following transplant was studied in naïve Rhesus monkeys, as outlined in FIG. 1B. For the kidney transplant, animals were paired with ABO-compatible donors and mismatched for MHC haplotype of class I loci while allowing 1 or 2 MHC II haplotype matching. This degree of MHC mismatch is known to elicit a robust graft rejection and sensitization.
The alpha-biased IL-2-Fc fusion protein was administered subcutaneously at a dose of 50 μg/kg both pre- and post-transplant on Days −6, 1, 15, and 29. The kidney transplant was performed on Day 0, and rapamycin was administered daily by intramuscular injection, targeting a trough concentration of approximately 8-12 ng/mL. Rapamycin administration was discontinued on Day […] post-transplant. As a control, five monkeys were only administered the daily rapamycin. Kidney allograft biopsies were performed at 1-month and 3-months post-transplant. Blood samples were collected regularly, and samples were either analyzed at ambient temperature or frozen and stored.

[2] = test system: regulatory T cells (Tregs); experiment: Immunomodulatory effect (Treg expansion) in naïve Rhesus monkeys, flow cytometry; format: in vivo
Method: An exemplary alpha-biased IL-2 variant fused to an Fc domain of human IgG1 was prepared with a full length sequence according to SEQ ID NO: 27. The immunomodulatory effect of the exemplary alpha-biased IL-2-Fc fusion protein was assessed in naïve Rhesus monkeys by a study outlined in FIG. 1A. […] Rapamycin was also administered daily from Day 0 by intramuscular injections, targeting a trough level of approximately 8-12 ng/mL. Treg populations (CD4^+CD25^+FoxP3^+ and CD4^+CD25^+CD127^lo) and other immune cell populations including CD3^+/CD8^+ cytotoxic T cells (CTL) were analyzed using flow cytometry.

kidney allograft [3] = experiment: Kidney allograft survival after transplant and discontinuation of treatment, rapamycin discontinued on Day 30 (Example 3); format: in vivo, Rhesus monkeys
Text: However, rapamycin administration was discontinued on Day 30 post-transplant. A control group was only administered the daily rapamycin.

Molecule	survival post-transplant, one Rhesus monkey (kidney allograft [1]; 50 μg/kg plus daily rapamycin until Day 180, longest surviving monkey) [days]	kidney graft survival, at least three of four Rhesus monkeys (kidney allograft [1]; 50 μg/kg plus daily rapamycin, at least three of four monkeys)	time creatinine and BUN / transplanted kidney stable post-transplant, some cases (kidney allograft [1]; 50 μg/kg s.c. Days −6, 1, 15, 29 plus daily rapamycin until Day 180, some cases)	time creatinine and blood urea nitrogen (BUN) stable post-transplant, most cases (kidney allograft [1]; 50 μg/kg s.c. Days −6, 1, 15, 29 plus daily rapamycin, most cases, FIGS. 4A, 4B)	Tregs (FoxP3+ CD4+ and CD127lo CD4+) in PBMCs (kidney allograft [1]; after administration, post-transplant, FIG. 8)	CD20+ B cells (kidney allograft [1]; after kidney transplant, FIG. 5)	histopathology of monkey terminated early for excessive body weight loss (kidney allograft [1]; one monkey of the fusion protein group)	blood chemistry parameters (ALT, ALP, GGT, bilirubin, protein, albumin, globulin, cholesterol, phosphate, calcium, glucose, sodium, potassium, chloride) (kidney allograft [1]; rhesus monkey, in vivo)	hematology parameters (hemoglobin, hematocrit, blood cell counts) (kidney allograft [1]; rhesus monkey, in vivo)	percent of Tregs (CD4+CD25+FoxP3+) ([2]; 5-7 days after administration, increased from 6.21% pre-treatment, s.c. 50 or 100 μg/kg with daily rapamycin, FIG. 2A) [%]	tachyphylaxis of Treg number and percent on repeated dosing ([2]; FIGS. 3A and 3B, after each dose)	cytotoxic T cells (CTLs) during the increase in Tregs ([2]; over the course of treatment)	ratio of Tregs:CD8 cells ([2]; over the course of treatment, 50 or 100 μg/kg, FIG. 2B)	absolute number of Tregs ([2]; over the course of treatment, s.c. Days 0, 14, 28 at 50 or 100 μg/kg, daily rapamycin, FIG. 2B)	time sCR and BUN levels stable post-transplant, most cases (kidney allograft [3]; 50 μg/kg s.c. Days −6, 1, 15, 29 plus daily rapamycin until Day 30, most cases, FIG. 10A)	time sCR and BUN levels stable post-transplant, some cases (kidney allograft [3]; rapamycin discontinued Day 30, some cases) [days]	time sCR and BUN levels stable following complete withdrawal of immunosuppressive drugs (kidney allograft [3]; some cases)	time to termination post-transplant (increases in sCR and BUN or excessive weight loss) (kidney allograft [3]; control group, daily rapamycin only, FIG. 10B)
alpha-biased IL-2-Fc fusion protein: IL2 Variant (H16L/V69A/Q74P/C125S) fused to IgG1 Fc (N297G) allotype m3; full length sequence SEQ ID NO: 27	235	over 50 days	over 235 days	over 50 days	increase in both percent and number	decrease	did not indicate kidney rejection	fell within the expected range	normally fell within their expected ranges	38.5	without signs of tachyphylaxis	did not coincide with an increase	significantly increased in a dose-dependent manner	significantly increased in a dose-dependent manner; also recorded: statistically significant and dose dependent	at least 40 days	≥ 110	up to 82 days	
CO[C@H]1C[C@@H]2CC[C@@H](C)[C@@](O)(O2)C(=O)C(=O)N2CCCC[C@H]2C(=O)O[C@H]([C@H](C)C[C@@H]2CC[C@@H](O)[C@H](OC)C2)CC(=O)[C@H](C)/C=C(\C)[C@@H](O)[C@@H](OC)C(=O)[C@H](C)C[C@H](C)/C=C/C=C/C=C/1C [rapamycin, reference compound]																		less than 30 days
